Usually EC50 stands for the midpoint of the concentration-response curve. A low value points to higher potency in that assay. In general, Emax refers to the maximal effect, on the per cent scale that the assay sets.

SMILES strings stand for the structures.

Here are results for 40 compounds from US9676779B2, “Small molecule CFTR correctors” (DISCOVERYBIOMED, INC., priority 2012, dated 2017).

For this experiment, the target named is T1, delF508-CFTR (Homo sapiens, UniProt P13569, DEL508-508).
T1 construct: Unaltered CFBE41o− cells were used as the model; endogenous in cells; host or cells: CFBE41o- human CF bronchial epithelial cells (delF508 homozygous, not overexpressing)
T1 sequence (P13569 with tags, fused parts or gaps DEL508-508): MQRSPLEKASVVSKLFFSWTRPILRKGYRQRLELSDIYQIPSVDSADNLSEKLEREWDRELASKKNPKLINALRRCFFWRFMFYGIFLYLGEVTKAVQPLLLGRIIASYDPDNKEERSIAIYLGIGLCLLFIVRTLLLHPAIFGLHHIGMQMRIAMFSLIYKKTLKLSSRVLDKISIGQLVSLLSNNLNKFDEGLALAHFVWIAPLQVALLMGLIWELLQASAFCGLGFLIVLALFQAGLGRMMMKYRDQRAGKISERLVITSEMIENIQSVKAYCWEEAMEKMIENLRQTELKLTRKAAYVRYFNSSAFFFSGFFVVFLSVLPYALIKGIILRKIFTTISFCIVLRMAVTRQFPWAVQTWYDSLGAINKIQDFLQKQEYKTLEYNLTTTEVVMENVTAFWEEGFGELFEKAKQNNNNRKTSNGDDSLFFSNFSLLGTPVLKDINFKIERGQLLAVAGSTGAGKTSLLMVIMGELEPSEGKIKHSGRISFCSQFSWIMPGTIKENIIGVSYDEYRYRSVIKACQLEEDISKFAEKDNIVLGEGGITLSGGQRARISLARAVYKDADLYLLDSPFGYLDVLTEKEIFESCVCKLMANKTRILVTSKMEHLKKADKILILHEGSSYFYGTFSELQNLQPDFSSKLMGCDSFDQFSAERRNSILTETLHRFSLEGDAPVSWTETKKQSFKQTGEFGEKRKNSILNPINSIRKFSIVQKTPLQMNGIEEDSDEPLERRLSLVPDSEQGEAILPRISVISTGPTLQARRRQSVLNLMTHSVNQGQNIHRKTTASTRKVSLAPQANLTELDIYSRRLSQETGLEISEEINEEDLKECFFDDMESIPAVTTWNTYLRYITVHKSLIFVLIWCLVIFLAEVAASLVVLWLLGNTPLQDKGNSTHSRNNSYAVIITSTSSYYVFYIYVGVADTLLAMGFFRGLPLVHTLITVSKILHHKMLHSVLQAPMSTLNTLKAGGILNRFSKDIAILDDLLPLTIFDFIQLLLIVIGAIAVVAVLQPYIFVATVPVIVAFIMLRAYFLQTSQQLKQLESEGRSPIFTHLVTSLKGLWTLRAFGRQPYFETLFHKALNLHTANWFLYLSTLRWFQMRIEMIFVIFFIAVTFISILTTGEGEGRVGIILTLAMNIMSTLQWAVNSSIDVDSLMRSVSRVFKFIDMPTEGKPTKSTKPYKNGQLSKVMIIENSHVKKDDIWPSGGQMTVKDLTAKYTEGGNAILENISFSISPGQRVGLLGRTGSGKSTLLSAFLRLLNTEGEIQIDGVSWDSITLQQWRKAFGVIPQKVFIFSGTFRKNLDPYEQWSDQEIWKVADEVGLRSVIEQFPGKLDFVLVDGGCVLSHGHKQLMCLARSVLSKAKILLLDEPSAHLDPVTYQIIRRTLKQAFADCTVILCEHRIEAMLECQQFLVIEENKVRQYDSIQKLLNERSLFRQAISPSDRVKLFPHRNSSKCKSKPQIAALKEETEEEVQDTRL
Put plainly: SPQ halide-sensitive fluorescence dye profiling assay (rescue of halide efflux). Format: cell-based. Conditions: for EC50 / EC50 (μM): SPQ assay, 8-point concentration-response curve, CFBE41o− cells; for Emax: VX-809 at 3 μM treated as 100% efficacy; for Efficacy Comparison to 3 μM VX-809: compared to VX-809 at 3 μM; for potency and efficacy versus VX-809 in SPQ profiling: compounds advanced to further profiling. How it is done:
The method of profiling can include detecting the rescue of halide efflux from a cell. The step of detecting a rescue of halide efflux from the cell can be monitored using the halide quenched dye 6-methoxy-N-(3-sulfopropyl)-quinolinium (SPQ, Molecular Probes Inc., Eugene, Oreg.). In this method, cells are treated with a compound as described herein for a period of time (e.g., 48 hours). The rescue or correction of halide efflux is then detected using the SPQ assay with the halide dye. […] Optionally, the halide efflux is chloride efflux. The method of screening can further comprise performing the method with multiple concentrations of the compound.
The compounds were initially subjected to the SPQ halide-sensitive fluorescence dye profiling assay for rescue or correction of membrane chloride ion permeability or transport with an 8-point concentration-response curve. The EC50 values for the compounds described herein were determined and compared to the efficacy of the industry standard Vertex 809 (VX-809; Vertex Pharmaceuticals, Cambridge, Mass.) at 3 μM, which is the maximally effective profiling dose for VX-809 (Table 1). The VX-809 dosage at 3 μM was treated as having 100% efficacy in the comparison.
To perform the SPQ high throughput screening assay, CFBE41o− cells were seeded into 96-well microtiter plates and were loaded with the fluorescent halide-sensitive dye, SPQ, in serum-containing culture medium. Certain wells were loaded with known positive control corrector molecules, including VX-809. The test compounds were loaded into wells and were tested in triplicate wells at a 10 μM dose and incubated over 48 hours at room temperature. During the 48 hour period, SPQ was absorbed. Plates were washed in a sodium chloride (NaCl) based Ringer and read once over two minutes to set the baseline SPQ fluorescence activity. Then, NaCl was replaced by sodium nitrate (NaNO3) based Ringer. The plates were read twice over four minutes. The primary high throughput screen (HTS) data were analyzed to detect any function of rescued delF508-CFTR under basal conditions. The plate was read up to two times to complete the SPQ HTS assay.

In turn, `Cc1nn2c(C)c(C(=O)O)nnc2c1-c1ccc(Cl)cc1` [Compound C-1] came in with a half-maximal effective concentration (EC50) of 1.9 µM and an Emax of 200%.

Regarding `Cc1nn2cc(C(=O)O)nnc2c1-c1ccc(Cl)cc1` [Compound C-3], the response was half-maximal at 11.5 µM (EC50), the Emax turned out to be 200% and the “Efficacy Comparison to 3 μM VX-809” value is reported as “Equivalent to VX-809”.

Take `O=C(O)c1cn2ncc(-c3ccc(Cl)cc3)c2nn1` [Compound C-4]: the “EC50 (μM)” value was “No effect” and the Emax stood at 0%.

Take `Cc1nn2c(C)c(C(=O)O)nnc2c1-c1ccc(Cl)c(Cl)c1` [Compound C-5]: a half-maximal effect (EC50) was put at 0.1 µM; the Emax was determined as 160%; the “Efficacy Comparison to 3 μM VX-809” value is on record as 10-fold greater than VX-809; the “potency and efficacy versus VX-809 in SPQ profiling” value is “superior potency and efficacy to VX-809”.

Take `COc1ccc(-c2c(C)nn3c(C)c(C(=O)O)nnc23)cc1OC` [Compound C-6]: it took 9.9 µM to reach a half-maximal effect (EC50), the maximum response (Emax) amounted to 170% and the “Efficacy Comparison to 3 μM VX-809” value is listed as 3-fold greater than VX-809.

Turning to `CCOc1ccc(-c2c(C)nn3c(C)c(C(=O)O)nnc23)cc1` [Compound C-7], the midpoint of the response, the EC50, lay at 7 µM; the maximal effect (Emax) stood at 220%; the “Efficacy Comparison to 3 μM VX-809” value is recorded as 3-fold greater than VX-809.

As for `CCCOc1ccc(-c2c(C)nn3c(C)c(C(=O)O)nnc23)cc1` [Compound C-8], a half-maximal response (EC50) required 5.7 µM, the Emax amounted to 155% and the “Efficacy Comparison to 3 μM VX-809” value is recorded as 2-fold greater than VX-809.

On to `Cc1nn2c(C)c(C(=O)O)nnc2c1-c1ccc(O)cc1` [Compound C-9], for which the EC50 was 17.8 µM, the Emax came out at 120% and the “Efficacy Comparison to 3 μM VX-809” value is recorded as “Less than VX-809”.

Consider `Cc1c(C(=O)O)nnc2c(-c3ccc(Cl)cc3)c(-c3ccc(Cl)cc3)nn12` [Compound C-10], for which the “EC50 (μM)” value is listed as “No effect” and the maximal effect (Emax) came to 40%.

In the case of `Cc1c(C(=O)O)nnc2c(-c3ccccc3)c(-c3ccccc3)nn12` [Compound C-11], the “EC50 (μM)” value is given as “No effect” and the Emax is 0%.

With `CCOC(=O)c1cn2nc(C)c(-c3ccc(Cl)cc3)c2nn1` [Compound C-13], the “EC50 (μM)” value is given as “No effect” and the Emax was determined as 0%.

With `CCOC(=O)c1cn2ncc(-c3ccc(Cl)cc3)c2nn1` [Compound C-14], the “EC50 (μM)” value was “No effect” and the maximal response (Emax) came to 0%.

For `CCOC(=O)c1nnc2c(-c3ccc(OC)c(OC)c3)c(C)nn2c1C` [Compound C-16], a half-maximal effect (EC50) was put at 2.2 µM, the Emax was found to be 80% and the “Efficacy Comparison to 3 μM VX-809” value is given as 2-fold greater than VX-809.

With `CCOC(=O)c1nnc2c(-c3ccc(OCC)cc3)c(C)nn2c1C` [Compound C-17], the concentration for a half-maximal effect (EC50) was over 30 µM, the Emax is 75% and the “Efficacy Comparison to 3 μM VX-809” value is listed as “Equivalent to VX-809”.

For `CCCOc1ccc(-c2c(C)nn3c(C)c(C(=O)OCC)nnc23)cc1` [Compound C-18], the EC50 was 3.1 µM, the maximum response (Emax) worked out at 20% and the “Efficacy Comparison to 3 μM VX-809” value was “Less than VX-809”.

For the compound `CCOC(=O)c1nnc2c(-c3ccc(O)cc3)c(C)nn2c1C` [Compound C-19], the “EC50 (μM)” value is recorded as “No effect” and the Emax came out at 0%.

In the case of `CCCOC(=O)c1nnc2c(-c3ccc(Cl)cc3)c(C)nn2c1C` [Compound C-20], the EC50 came out at 2 µM, the maximum response (Emax) was 100% and the “Efficacy Comparison to 3 μM VX-809” value is 2.5-fold greater than VX-809.

As for `Cc1nn2c(C)c(C(=O)OC(C)C)nnc2c1-c1ccc(Cl)cc1` [Compound C-21], the EC50 was 1.1 µM, the maximal effect (Emax) came to 50% and the “Efficacy Comparison to 3 μM VX-809” value was 2.5-fold greater than VX-809.

For `Cc1nn2c(C)c(C(=O)O)nnc2c1-c1cc(Cl)cc(Cl)c1` [Compound C-22], it took 1.3 µM to reach a half-maximal effect (EC50); the Emax was determined as 130%; the “Efficacy Comparison to 3 μM VX-809” value is 12-fold greater than VX-809; the “potency and efficacy versus VX-809 in SPQ profiling” value was “superior potency and efficacy to VX-809”.

As for `Cc1nn2c(C)c(C(=O)O)nnc2c1-c1ccc(F)c(F)c1` [Compound C-23], the maximal response (Emax) came to 110% and the “Efficacy Comparison to 3 μM VX-809” value is on record as “Equivalent to VX-809”.

On to `Cc1nn2c(N)c(C(=O)O)nnc2c1-c1ccc(Cl)c(Cl)c1` [Compound C-25], for which the EC50 stood at 0.83 µM; the Emax turned out to be 100%; the “Efficacy Comparison to 3 μM VX-809” value was 10-fold greater than VX-809; the “potency and efficacy versus VX-809 in SPQ profiling” value is “superior potency and efficacy to VX-809”.

As for `CCOC(=O)c1nnc2c(-c3ccc(Cl)c(Cl)c3)c(C)nn2c1C(=O)OCC` [Compound C-26.1], the “EC50 (μM)” value was “No effect (toxic” and the Emax amounted to 0%.

As for `CCOC(=O)c1c(C(=O)OC(C)(C)C)nnc2c(-c3ccc(Cl)c(Cl)c3)c(C)nn12` [Compound C-26.2], the “EC50 (μM)” value is recorded as “No effect (toxic” and the maximal response (Emax) was found to be 0%.

Take `Cc1nn2c(N)c(C(=O)O)nnc2c1-c1ccc(Cl)cc1` [Compound C-27]: it took 3.3 µM to reach a half-maximal effect (EC50), the Emax was determined as 90% and the “Efficacy Comparison to 3 μM VX-809” value is given as 2-fold greater than VX-809.

Regarding `CCOC(=O)c1nnc2c(-c3ccc(Cl)cc3)c(C)nn2c1C(=O)OCC` [Compound C-28.1], the “EC50 (μM)” value is recorded as “No effect” and the maximal response (Emax) is 0%.

Take `Cc1nn2c(C)c(C(N)=O)nnc2c1-c1ccc(Cl)c(Cl)c1` [Compound C-29]: the “EC50 (μM)” value was “No effect” and the Emax was determined as 0%.

For `CNC(=O)c1nnc2c(-c3ccc(Cl)c(Cl)c3)c(C)nn2c1C` [Compound C-30], the EC50 worked out at 26.3 µM, the maximal effect (Emax) turned out to be 50% and the “Efficacy Comparison to 3 μM VX-809” value is reported as “Less than VX-809”.

For `Cc1nn2c(C)c(C(=O)N(C)C)nnc2c1-c1ccc(Cl)c(Cl)c1` [Compound C-31], the “EC50 (μM)” value was “No effect” and the maximum response (Emax) is 0%.

For the compound `COC(=O)C(=O)c1nnc2c(-c3ccc(Cl)c(Cl)c3)c(C)nn2c1C` [Compound C-32.1], the “EC50 (μM)” value is “No effect (toxic” and the Emax came to 5%.

On to `Cc1nn2c(C)c(C(=O)C(=O)O)nnc2c1-c1ccc(Cl)c(Cl)c1` [Compound C-32], for which the concentration for a half-maximal effect (EC50) is 6 µM, the Emax came to 160% and the “Efficacy Comparison to 3 μM VX-809” value was 2.5-fold greater than VX-809.

`Cc1nn2c(C)c(C(=O)OC(C)(C)C)nnc2c1-c1ccc(Cl)c(Cl)c1` [Compound C-34]: it took 0.58 µM to reach a half-maximal effect (EC50) and the Emax turned out to be 0%.

`Cc1nn2c(C)c(C(=O)Oc3ccccc3)nnc2c1-c1ccc(Cl)c(Cl)c1` [Compound C-35]: the midpoint of the response, the EC50, lay at 0.7 µM; the Emax was found to be 100%; the “Efficacy Comparison to 3 μM VX-809” value is recorded as “Equivalent to VX-809”.

For the compound `Cc1nn2c(C)c(C(=O)NS(C)(=O)=O)nnc2c1-c1ccc(Cl)c(Cl)c1` [Compound C-36], the EC50 stood at 4.8 µM, the Emax was determined as 50% and the “Efficacy Comparison to 3 μM VX-809” value is “Equivalent to VX-809”.

Take `CCS(=O)(=O)NC(=O)c1nnc2c(-c3ccc(Cl)c(Cl)c3)c(C)nn2c1C` [Compound C-37]: the half-maximal effective concentration (EC50) is 5.1 µM, the maximal response (Emax) came out at 80% and the “Efficacy Comparison to 3 μM VX-809” value was “Equivalent to VX-809”.

Take `Cc1nn2c(C)c(-c3nnn[nH]3)nnc2c1-c1ccc(Cl)c(Cl)c1` [Compound C-40]: the “EC50 (μM)” value is “No effect (toxic” and the Emax turned out to be 0%.

With `Cc1cnc(-c2nnc3c(-c4ccc(Cl)c(Cl)c4)c(C)nn3c2C)o1` [Compound C-41], the “EC50 (μM)” value is given as “No effect” and the maximal effect (Emax) amounted to 0%.

Consider `Cc1nnc(-c2nnc3c(-c4ccc(Cl)c(Cl)c4)c(C)nn3c2C)o1` [Compound C-42], for which the “EC50 (μM)” value is recorded as “No effect” and the Emax is 5%.

For the compound `Cc1nn2c(C)c(-c3nnco3)nnc2c1-c1ccc(Cl)c(Cl)c1` [Compound C-43], a half-maximal response (EC50) required 11 µM, the Emax worked out at 50% and the “Efficacy Comparison to 3 μM VX-809” value is given as “Equivalent to VX-809”.

Turning to `Cc1nn2c(C)c(C(=O)O)cnc2c1-c1ccc(Cl)c(Cl)c1` [Compound C-45], a half-maximal effect (EC50) was put at 2.5 µM, the Emax is 50% and the “Efficacy Comparison to 3 μM VX-809” value is “Equivalent to VX-809”.

Take `Cc1nn2c(C)c(C(=O)OC(C)C)nnc2c1-c1ccc(Cl)c(Cl)c1` [Compound C-49]: the EC50 came to 2 µM, the maximal effect (Emax) was found to be 50% and the “Efficacy Comparison to 3 μM VX-809” value is recorded as “Equivalent to VX-809”.
